According to patent US12357596B2, “Compounds for prevention and treatment of obesity and related disorders” (ABREXA PHARMACEUTICALS, INC., priority 2019, dated 2025):

Experiment: 28-day once-daily oral gavage toxicity study with 14-day recovery (body weight, food consumption, clinical and anatomic pathology)
Assay type: in vivo
Conditions: for Decrease of group mean food consumption compared to Group 1 controls: Days 21 to 28
Method: J147 or vehicle was administered once daily to Sprague-Dawley rats via oral gavage for 28 consecutive days at a daily dose of 0, 30, 100 or 300 mg/kg. J174 was prepared in a vehicle formulation comprising 5% ethanol, 5% DMSO and 90% corn oil (v/v/v). Certified rodent diet and water was available ad libitum. Groups 1-4 contained 10 animals/sex/group. Groups 1 (control) and 4 (high dose) also included an additional 5 animals/sex/group for use as recovery animals. The recovery animals were maintained on study for a 14-day postdosing recovery period. Animals in Groups 1-4 were monitored for morbidity and mortality, clinical signs, detailed clinical observations, body weight, food consumption, ophthalmologic parameters, neurobehavioral assessment consisting of a Functional Observational Battery (FOB) and a motor activity test, hematology, coagulation, serum chemistry, and urinalysis parameters. Postmortem assessment included necropsy, measurement of selected organ weights, and microscopic evaluation of a standard set of tissues. Plasma samples for bioanalysis were collected on Days 1 and 28 from satellite toxicokinetic animals in Groups 5 through 8. Animals in these groups were euthanized following the last blood sampling and carcasses were discarded without examination. The study protocol is shown below in Table 1.

[1] = Group 2F: female rats, 30 mg/kg/day
[2] = Group 2M: male rats, 30 mg/kg/day
[3] = Group 3F: female rats, 100 mg/kg/day
[4] = Group 3M: male rats, 100 mg/kg/day
[5] = Group 4F: female rats, 300 mg/kg/day
[6] = Group 4M: male rats, 300 mg/kg/day
[7] = female rats, 30 mg/kg/day, Day 7 → 14
[8] = female rats, 30 mg/kg/day, Day 14 → 21
[9] = female rats, 30 mg/kg/day, Day 21 → 28
[10] = female rats, 30 mg/kg/day, Day −1 → 7
[11] = female rats, 100 mg/kg/day, Day 7 → 14
[12] = female rats, 100 mg/kg/day, Day 14 → 21
[13] = female rats, 100 mg/kg/day, Day 21 → 28
[14] = female rats, 100 mg/kg/day, Day 28
[15] = female rats, 100 mg/kg/day, Day −1 → 7
[16] = female rats, 300 mg/kg/day, Day 7 → 14
[17] = female rats, 300 mg/kg/day, Day 14 → 21
[18] = female rats, 300 mg/kg/day, Day 21 → 28
[19] = female rats, 300 mg/kg/day, Day 28
[20] = female rats, 300 mg/kg/day, Day −1 → 7
[21] = male rats, 30 mg/kg/day, Day 7 → 14

COc1cccc(/C=N/N(C(=O)C(F)(F)F)c2ccc(C)cc2C)c1 [J147]
Terminal Body Weight % Diff from Control [1]: −2.4%
Terminal Body Weight (mean) [1]: 238.10 g
Terminal Body Weight % Diff from Control [2]: +1.4%
Terminal Body Weight (mean) [2]: 443.50 g
Terminal Body Weight % Diff from Control [3]: −7.6%
Terminal Body Weight (mean) [3]: 225.43 g
Terminal Body Weight % Diff from Control [4]: −5.69%
Terminal Body Weight (mean) [4]: 412.50 g
Terminal Body Weight % Diff from Control [5]: −14.23%
Terminal Body Weight (mean) [5]: 209.24 g
Terminal Body Weight % Diff from Control [6]: −17.91%
Terminal Body Weight (mean) [6]: 359.05 g
NOAEL at 28 days (both sexes, Sprague-Dawley, rat, in vivo, po): 30 mg/kg/day
Increase in platelet counts (female rats, 30 mg/kg/day): 3.8%
Mean Bodyweight (female rats, 30 mg/kg/day, Day 7): 220.64 g
Food Mean Consumption [7]: 14.89 g/animal/day
Mean Bodyweight Gain [7]: 13.06 g
Mean Bodyweight (female rats, 30 mg/kg/day, Day 14): 233.70 g
Food Mean Consumption [8]: 15.47 g/animal/day
Mean Bodyweight Gain [8]: 9.45 g
Mean Bodyweight (female rats, 30 mg/kg/day, Day 21): 243.15 g
Food Mean Consumption [9]: 15.12 g/animal/day
Mean Bodyweight Gain [9]: 5.08 g
Mean Bodyweight (female rats, 30 mg/kg/day, Day 28): 248.23 g
Mean Bodyweight (female rats, 30 mg/kg/day, Day −1 (pre-dose)): 203.02 g
Food Mean Consumption [10]: 15.49 g/animal/day
Mean Bodyweight Gain [10]: 17.62 g
Mean Bodyweight Gain (female rats, 30 mg/kg/day, Day −1 → 28): 45.21 g
Mean Bodyweight (female rats, 30 mg/kg/day, Day −3 (pre-dose)): 200.70 g
Mean Bodyweight (female rats, 100 mg/kg/day, Day 7): 215.78 g
Food Mean Consumption [11]: 13.85 d^4 g/animal/day
Mean Bodyweight Gain [11]: 9.99 d^3 g
Mean Bodyweight (female rats, 100 mg/kg/day, Day 14): 225.77 d^2 g
Food Mean Consumption [12]: 14.70 g/animal/day
Mean Bodyweight Gain [12]: 7.02 g
Mean Bodyweight (female rats, 100 mg/kg/day, Day 21): 232.79 d^2 g
Food Mean Consumption [13]: 13.98 g/animal/day
Mean Bodyweight Gain [13]: 1.60 g
Decrease of group mean body weight compared to Group 1 controls [14]: 6.9%
Mean Bodyweight [14]: 234.39 g
Mean Bodyweight (female rats, 100 mg/kg/day, Day −1 (pre-dose)): 206.05 g
Food Mean Consumption [15]: 14.33 dd^3 g/animal/day
Mean Bodyweight Gain [15]: 9.73 d^3 g
Mean Bodyweight Gain (female rats, 100 mg/kg/day, Day −1 → 28): 28.34 dd^4 g
Mean Bodyweight (female rats, 100 mg/kg/day, Day −3 (pre-dose)): 201.20 g
Decrease of group mean food consumption compared to Group 1 controls (female rats, 100 mg/kg/day): 8.6%
Food Mean Consumption (female rats, 300 mg/kg/day for 28 days, Day 28 → 35 (recovery)): 22.30 d^4 g/animal/day
Mean Bodyweight Gain (female rats, 300 mg/kg/day for 28 days, Day 28 → 42 (recovery)): 32.82 g
Mean Bodyweight (female rats, 300 mg/kg/day for 28 days, Day 35 (recovery)): 249.62 g
Food Mean Consumption (female rats, 300 mg/kg/day for 28 days, Day 35 → 42 (recovery)): 20.22 g/animal/day
Mean Bodyweight (female rats, 300 mg/kg/day for 28 days, Day 42 (recovery)): 258.24 g
Mean Bodyweight (female rats, 300 mg/kg/day, Day 7): 214.74 g
Food Mean Consumption [16]: 13.81 dd^3 g/animal/day
Mean Bodyweight Gain [16]: 8.25 dd^4 g
Mean Bodyweight (female rats, 300 mg/kg/day, Day 14): 222.99 dd^3 g
Food Mean Consumption [17]: 14.73 g/animal/day
Mean Bodyweight Gain [17]: 5.03 dd^4 g
Mean Bodyweight (female rats, 300 mg/kg/day, Day 21): 228.03 dd^3 g
Food Mean Consumption [18]: 12.91 d^4 g/animal/day
Mean Bodyweight Gain [18]: −7.49 d^3 g
Decrease of group mean body weight compared to Group 1 controls [19]: 12.4%
Mean Bodyweight [19]: 220.53 dd^3 g
Mean Bodyweight (female rats, 300 mg/kg/day, Day −1 (pre-dose)): 207.85 g
Food Mean Consumption [20]: 13.75 dd^3 g/animal/day
Mean Bodyweight Gain [20]: 6.89 dd^4 g
Mean Bodyweight Gain (female rats, 300 mg/kg/day, Day −1 → 28): 12.68 dd^4 g
Mean Bodyweight (female rats, 300 mg/kg/day, Day −3 (pre-dose)): 200.70 g
Decrease of group mean food consumption compared to Group 1 controls (female rats, 300 mg/kg/day): 15.6%
Group mean weight gain from Day −1 to 28 (female rats, Group 2 (30 mg/kg/day)): 45 grams
Group mean weight gain from Day −1 to 28 (female rats, Group 3 (100 mg/kg/day)): 28 grams
Group mean weight gain from Day −1 to 28 (female rats, Group 4 (300 mg/kg/day)): 13 grams
Mean Bodyweight (male rats, 30 mg/kg/day, Day 7): 338.91 g
Mean Bodyweight Gain [21]: 52.38 g
Mean Food Consumption [21]: 24.85
Mean Bodyweight (male rats, 30 mg/kg/day, Day 14): 391.29 g
